The target in data set [1] is T1, Trypsin (Bos taurus, UniProt P00760).
T1 sequence (P00760 24-246): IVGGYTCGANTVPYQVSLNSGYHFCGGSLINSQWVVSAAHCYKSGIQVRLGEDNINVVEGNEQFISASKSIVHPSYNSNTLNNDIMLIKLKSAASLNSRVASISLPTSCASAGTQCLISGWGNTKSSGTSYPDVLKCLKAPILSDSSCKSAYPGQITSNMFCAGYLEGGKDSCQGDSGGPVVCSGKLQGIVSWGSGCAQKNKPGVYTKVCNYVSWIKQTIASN
As to the kind of experiment: Anti-trypsin activity (hydrolysis of TAME). The class given is biochemical. Particulars: molar concentration inhibiting 50% of TAME hydrolysis; read-out: ID50 trypsin.

For data set [2], the target named is Thrombin (Homo sapiens, UniProt P00734). As to the kind of experiment: biochemical. Particulars: molar concentration inhibiting 50% of TAME hydrolysis; read-out: ID50 thrombin.
Data set [3] relates to Forssman shock. As to the kind of experiment: Forssman shock. The class given is in vivo, guinea pig. Particulars: test compound 3 mg/kg before intravenous hemolysin; individual male guinea pigs; control died at 278, 318, 296 sec. From the text:
Quite different from other animals, guinea pig has on the surface of its organs a specific antigen called Forssman antigen which specifically reacts with the antibody of sheep erythrocyte. Forssman shock is based on the above principle and is a shock caused by the administration of antibody of sheep erythrocyte to a guinea pig. The Forssman shock was investigated in detail by many researches and it was definitely shown that this shock is a model case where the complement plays the principal part and that the shock is associated with a classical pathway in which the complement system is activated progressively starting from C1. Since the participation of complement in autoimmune diseases has been established, the Forssman shock can be said to be useful means for testing a drug for autoimmune diseases. A drug effective for the treatment of Forssman shock is useful as a drug of autoimmune diseases. [Anti-trypsin, anti-plasmin, anti-kallikrein and anti-thrombin activities]
The experiment was performed according to the method of I. G. Offerness et al. [Biochem. Pharmacol., 27 (14), 1873-1878 (1978)]. Male Hartlay guinea pig of about 300 g in body weight was used. Each guinea pig of the control group was administered intravenously with hemolysin (minimum dose to cause the shock) (commercial hemolysin, 5,000 U as assayed by the method of Ogata) and the time elapsed until death was observed. […]

Data set [4] deals with Kallikrein. As to the kind of experiment: Anti-kallikrein activity (hydrolysis of TAME). The class given is biochemical. Particulars: molar concentration inhibiting 50% of TAME hydrolysis; read-out: ID50 kallikrein.
Data set [5] is described as follows: Median lethal dose (LD50). Particulars: in vivo, mouse.
The target in data set [6] is Plasmin (Homo sapiens, UniProt P00747). As to the kind of experiment: Anti-plasmin activity (hydrolysis of TAME). Particulars: molar concentration inhibiting 50% of TAME hydrolysis; read-out: ID50 plasmin. The class given is biochemical. The protocol:
The anti-trypsin, anti-plasmin, anti-kallikrein and anti-thrombin activities were determined according to the method of Muramatsu et al. [M. Muramatus, T. Onishi, S. Makino, Y. Hayashi and S. Fujii, J. of Biochem., 58, 214 (1965)]. […] The compound No. corresponds to the compound number shown in Examples.

Data set [7] has as its target T2, C1s (Homo sapiens, UniProt P09871).
T2 sequence (P09871 438-688 limits assumed): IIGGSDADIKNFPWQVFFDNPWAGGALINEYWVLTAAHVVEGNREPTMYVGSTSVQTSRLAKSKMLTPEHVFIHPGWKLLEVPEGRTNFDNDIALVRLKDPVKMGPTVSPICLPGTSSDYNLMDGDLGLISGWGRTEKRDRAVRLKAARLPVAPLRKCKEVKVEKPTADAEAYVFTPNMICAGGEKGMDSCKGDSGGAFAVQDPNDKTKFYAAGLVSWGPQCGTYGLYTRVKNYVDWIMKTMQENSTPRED
T2 sequence (P09871 16-437 partner limits assumed): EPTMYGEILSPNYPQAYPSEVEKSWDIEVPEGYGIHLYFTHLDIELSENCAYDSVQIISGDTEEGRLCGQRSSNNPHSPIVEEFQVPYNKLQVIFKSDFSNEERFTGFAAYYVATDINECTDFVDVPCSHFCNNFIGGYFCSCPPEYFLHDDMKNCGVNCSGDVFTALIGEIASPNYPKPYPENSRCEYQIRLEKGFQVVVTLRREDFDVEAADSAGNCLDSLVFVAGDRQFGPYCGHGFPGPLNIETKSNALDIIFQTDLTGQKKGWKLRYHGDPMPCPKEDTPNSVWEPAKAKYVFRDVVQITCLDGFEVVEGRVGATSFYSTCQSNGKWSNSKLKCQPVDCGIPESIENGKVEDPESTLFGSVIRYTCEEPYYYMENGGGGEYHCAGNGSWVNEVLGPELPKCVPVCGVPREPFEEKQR
As to the kind of experiment: Anti-C1s activity (hydrolysis of ATEE). The format is biochemical. Particulars: molar concentration inhibiting 50% of ATEE hydrolysis; read-out: ID50 C1s (Anti-C1 activity). An outline of the steps: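 Method of Okamura et al.: C1s esterase hydrolysis of acetyltyrosine ethyl ester (ATEE) measured with test compound. Value is ID50, molar concentration inhibiting 50% of ATEE hydrolysis.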

Data set [8] addresses T3, C1r (Homo sapiens, UniProt P00736).
T3 sequence (P00736 464-705 limits assumed): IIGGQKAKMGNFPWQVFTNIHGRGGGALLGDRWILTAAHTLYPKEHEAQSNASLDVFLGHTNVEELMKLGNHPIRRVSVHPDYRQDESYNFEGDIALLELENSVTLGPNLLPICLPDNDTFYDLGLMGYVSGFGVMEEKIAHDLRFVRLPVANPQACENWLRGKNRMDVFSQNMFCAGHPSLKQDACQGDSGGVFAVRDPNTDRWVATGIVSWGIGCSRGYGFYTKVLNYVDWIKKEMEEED
T3 sequence (P00736 18-463 partner limits assumed): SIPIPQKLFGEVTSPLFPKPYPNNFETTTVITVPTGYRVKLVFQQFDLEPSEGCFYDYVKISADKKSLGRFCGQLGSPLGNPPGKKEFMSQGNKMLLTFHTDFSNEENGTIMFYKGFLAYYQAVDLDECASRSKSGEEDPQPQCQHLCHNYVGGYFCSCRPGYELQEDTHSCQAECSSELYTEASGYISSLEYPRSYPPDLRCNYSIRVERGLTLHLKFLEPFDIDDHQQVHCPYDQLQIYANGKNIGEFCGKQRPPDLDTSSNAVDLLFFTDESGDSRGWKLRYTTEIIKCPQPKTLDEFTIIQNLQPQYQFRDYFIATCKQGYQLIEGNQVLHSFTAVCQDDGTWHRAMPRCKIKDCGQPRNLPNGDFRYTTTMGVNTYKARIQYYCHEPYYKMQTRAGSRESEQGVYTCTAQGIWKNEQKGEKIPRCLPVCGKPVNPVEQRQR
As to the kind of experiment: biochemical. Particulars: molar concentration inhibiting 50% of AAME hydrolysis; read-out: ID50 C1r (Anti-C1 activity).

In data set [9] the test system is complement. As to the kind of experiment: Inhibition of complement mediated hemolysis. The class given is cell-based. The essentials: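 Anti-C1 esterase (C1r, C1s) activity was measured as suppression of hemolysis when a known amount of complement, mixed with inhibitor, is added to antibody-sensitized erythrocytes. Method of Okamura et al.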

pIC50: −log10 of the molar value.

The term LD50 denotes the dose expected to kill half of the subjects tested. A lower LD50 goes with a more toxic substance.

Sequence of Plasmin (P00747 581-810 limits assumed, species assumed): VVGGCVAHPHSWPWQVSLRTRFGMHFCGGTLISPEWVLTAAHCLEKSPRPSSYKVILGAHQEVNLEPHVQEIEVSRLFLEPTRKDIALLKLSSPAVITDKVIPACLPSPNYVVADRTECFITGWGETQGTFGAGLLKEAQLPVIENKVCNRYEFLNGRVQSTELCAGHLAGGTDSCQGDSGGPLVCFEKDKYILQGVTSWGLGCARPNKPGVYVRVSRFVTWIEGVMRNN
Sequence of Plasmin (P00747 97-580 partner limits assumed, species assumed): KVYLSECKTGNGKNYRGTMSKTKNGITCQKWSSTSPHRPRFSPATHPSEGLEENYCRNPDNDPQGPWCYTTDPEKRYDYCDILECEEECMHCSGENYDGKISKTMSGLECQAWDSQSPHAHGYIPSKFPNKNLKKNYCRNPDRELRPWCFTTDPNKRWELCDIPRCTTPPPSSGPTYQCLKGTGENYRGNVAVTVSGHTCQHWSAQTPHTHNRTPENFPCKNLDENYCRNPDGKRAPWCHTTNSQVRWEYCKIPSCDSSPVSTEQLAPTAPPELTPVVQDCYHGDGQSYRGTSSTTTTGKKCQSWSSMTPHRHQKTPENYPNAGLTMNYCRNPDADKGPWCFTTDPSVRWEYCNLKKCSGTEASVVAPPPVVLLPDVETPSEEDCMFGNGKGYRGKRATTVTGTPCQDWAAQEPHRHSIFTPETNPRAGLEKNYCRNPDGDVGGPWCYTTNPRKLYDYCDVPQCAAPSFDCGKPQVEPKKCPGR

On to `N=C(N)c1ccc2cc(OC(=O)c3ccc(CN)s3)ccc2c1` [Compound No. 31, 6-amidino-2-naphthyl 5-aminomethyl-thiophene-2-carboxylate], for which the pIC50 in data set [1] was 7.70; in data set [2], 6.00; in [4], 6.40; in [6], 6.40; in [7], 6.52; in [8] it was 6.70. Further, the “time elapsed until death (survival) in Forssman shock” value in [3] was “Survival”. In addition, the median lethal dose (LD50) was found to be 200 mg/kg in data set [5] (ip, I.P.) and 2500 mg/kg in data set [5] (po, P.O.). Moreover, the “Inhibition of complement mediated hemolysis (%)” value in data set [9] (1 × 10^-5) stood at 100%; in data set [9] (1 × 10^-6), 98%; in [9] (1 × 10^-7), 97%.

(Values after patent US4563527A, “Amidine compounds” (Torii & Co., Ltd., priority 1984, dated 1986).)
